# Patent EP1285920A1, “C10 Ester sustituted taxanes as antitumor agents” (Florida State University Research Foundation, Inc., priority 2001, dated 2003)
# Tested on: SKMES lung carcinoma
# Test: In vivo evaluation of compound 0503 against SKMES human lung carcinoma xenograft, i.v. dose range (Example 20)
# Conditions: for % Total Response: complete or partial responses among evaluable animals; for MDS (n): mean days of survival until neoplasm reached 2.0 g, 6 mice, terminated Day 60; for survival extension / MDS: other mice; for MDS: tumor 2.0 g
# Experimental: The antitumor compound was prepared in a vehicle of 10% ethanol and 90% Liposyn III in the manner as described for Emulsion 3 of Example 9.
# Treatment groups consisted of: vehicle only (Group 1), and antitumor compound 0503 (dosages of 104 mg/kg, 72.8 mg/kg, 41.6 mg/kg, and 10.4 mg/kg; Groups 2-5, respectively).
# [1] = 10.4 mg/kg, single IV bolus Day 1
# [2] = 10.4 mg/kg, single IV bolus Day 1, number of mice of 6, Day 60
# [3] = 41.6 mg/kg, single IV bolus Day 1
# [4] = 41.6 mg/kg, single IV bolus Day 1, number of mice of 6, Day 60
# [5] = 72.8 mg/kg, single IV bolus Day 1
# [6] = 72.8 mg/kg, single IV bolus Day 1, number of mice of 6, Day 60
# [7] = 104 mg/kg, single IV bolus Day 1
# [8] = 104 mg/kg, single IV bolus Day 1, number of mice of 6, Day 60
# [9] = SKMES, 72.8 mg/kg single IV bolus (Group 3)
# [10] = SKMES, 72.8 mg/kg single IV bolus (Group 3), six mice
# [11] = SKMES, 104 mg/kg single IV bolus (Group 2)
structure (smiles),measurement,setting,value
CCC(=O)O[C@H]1C(=O)[C@@]2(C)[C@H]([C@H](OC(=O)c3ccccc3)[C@]3(O)C[C@H](OC(=O)[C@H](O)[C@@H](NC(=O)OC(C)(C)C)c4ccccn4)C(C)=C1C3(C)C)[C@]1(OC(C)=O)CO[C@@H]1C[C@@H]2O [Compound 0503],% Total Response,[1],0%
same,MDS (n),[1],26.0 ± 2.5 (6) days
same,Toxic Deaths,"10.4 mg/kg, single IV bolus Day 1, number of mice of 6",0
same,Partial Response,[2],0
same,Stable Disease,[2],0
same,Survivors,[2],0
same,% Total Response,[3],0%
same,MDS (n),[3],33.8 ± 3.4 (5) days
same,Toxic Deaths,"41.6 mg/kg, single IV bolus Day 1, number of mice of 6",0
same,Partial Response,[4],0
same,Stable Disease,[4],1
same,Survivors,[4],1
same,% Total Response,[5],33.3%
same,MDS (n),[5],37.4 ± 5.2 (4) days
same,Toxic Deaths,"72.8 mg/kg, single IV bolus Day 1, number of mice of 6",0
same,Partial Response,[6],1
same,Stable Disease,[6],0
same,Survivors,[6],2
same,% Total Response,[7],50.0%
same,MDS (n),[7],46.6 ± 3.2 (3) days
same,Toxic Deaths,"104 mg/kg, single IV bolus Day 1, number of mice of 6",0
same,Partial Response,[8],0
same,Stable Disease,[8],0
same,Survivors,[8],3
same,survival extension,[9],114%
same,MDS,[9],37.4 days
same,Complete Response,[10],One
same,Partial Response,[10],one
same,complete tumor regressions,"SKMES, 104 mg/kg single IV bolus (Group 2), 10% ethanol, 90% Liposyn III, six mice",Three
same,survival extension,[11],167%
same,MDS,[11],46.6 days
